In article PMC8519033 (Pediatric Obesity, 2021):

What was measured:
[1] = Population pharmacokinetic analysis of liraglutide (one-compartment model, NONMEM FOCE-I; plasma ELISA); format: in vivo, human; conditions: for Absorption rate constant KA / Apparent volume of distribution V/F: parameter fixed
Protocol: As the focus of the analysis was a comparison of different age populations, age was prespecified to be included initially as a categorical variable.
In trial 4180, Tanner staging (stages 2‐5) of adolescents was assessed by site staff trained in pubertal assessments. For females, assessments of breast and pubic hair development were made. For males, assessments of testicular volume (by orchidometer), penis development and pubic hair development were made. Prepubertal patients were not permitted in the trial.
The structural model was parameterized in terms of the following parameters: • ka (absorption rate constant) • CL/F (apparent clearance) • V/F (apparent volume of distribution)
The first‐order conditional estimation with interaction (FOCE‐I) method was used for the population pharmacokinetic analysis, implemented in the non‐linear mixed effects modelling (NONMEM) software.
An analysis of the influence of covariates on exposure was carried out including all tested covariates in one step, using a confirmatory approach,[32] and disregarding any interactions between age group and sex. Model development involved estimation of a base model without covariates and a full model including all predefined covariates. If any covariates without statistically significant effect could be excluded, the reduced model would be considered the final population pharmacokinetic model. The covariates were prespecified and based on earlier findings in phase 3 trials with adults as well as prior knowledge from smaller trials in children and adolescents.
Specific steady‐state exposures for individual participants were based on the full model, including all covariates, and derived from the subject‐specific post‐hoc CL/F estimates, the maintenance dose and the dose interval (24 hours): (6) Cavg=Dose/CL/F*24hours
The CIs for full model parameters were estimated using bootstrapping. For each investigated covariate, differences were considered relevant if the 90% CI of the estimated mean of the relative exposure fell outside the standard bioequivalence limits (0.80‐1.25).
Between‐subject variability was included for CL/F and V/F, assuming log‐normal distributions […]. Furthermore, CL/F and V/F were estimated using a full variance‐covariance matrix. No between‐subject variability was included for ka. Within‐subject variability (residual) was described by a proportional error model. Standard graphical quality analyses, including goodness‐of‐fit plots (Figure S1), were made during qualification of the pharmacokinetic model.

[2] = test system: adolescents in trial 4180; design: species or system human; conditions: in vivo
Protocol: The analyses were conducted using response data at week 20 (phase 2 trial 1807), week 50 (phase 3a trial 1922) or week 56 (phase 3a trials 4180 and 1839) to align with the original analysis in adults. The appropriateness of using different trial lengths for the historical adult trials was evaluated by graphically exploring the weight loss longitudinally. This was deemed appropriate as the maximal effect on weight reduction was reached after 20 weeks of treatment and remained stable thereafter for the trials of longer duration. […] The two age groups differed in the placebo group response, with lower mean responses in adolescents; this difference was consistent across the exposure range as well. […] However, the effect of age group on the maximal effect in the model (Emax) was not significant in these analyses. […] Approximately 64% of the adolescents in the exposure‐response analysis grew more than 0.5 cm during the trial. Of these, some received liraglutide and some received placebo.

[3] = test system: pubertal adolescents with obesity; conditions: 56-week trial, liraglutide in addition to lifestyle therapy; 95% CI -0.37, -0.08; P = 0.002; cited from earlier work
[4] = base pharmacokinetic model without covariates

Absorption rate constant KA [1, 4]: 0.0804 h⁻¹
Apparent volume of distribution V/F [1, 4]: 13.1 L
Absorption rate constant KA ([1]; final (full covariate) pharmacokinetic model, trials 4180, 3967, 3630, 4181, children, adolescents and adults with obesity, N = 176): 0.0813 h⁻¹
Apparent volume of distribution V/F ([1]; final pharmacokinetic model, reference subject adult female, 100 kg): 13.8 L
Average growth (height) during the trial [2]: 1.4 cm
SMILES: CCCCCCCCCCCCCCCC(=O)N[C@@H](CCC(=O)NCCCC[C@H](NC(=O)[C@H](C)NC(=O)[C@H](C)NC(=O)[C@H](CCC(N)=O)NC(=O)CNC(=O)[C@H](CCC(=O)O)NC(=O)[C@H](CC(C)C)NC(=O)[C@H](Cc1ccc(O)cc1)NC(=O)[C@H](CO)NC(=O)[C@H](CO)NC(=O)[C@@H](NC(=O)[C@H](CC(=O)O)NC(=O)[C@H](CO)NC(=O)[C@@H](NC(=O)[C@H](Cc1ccccc1)NC(=O)[C@@H](NC(=O)CNC(=O)[C@H](CCC(=O)O)NC(=O)[C@H](C)NC(=O)[C@@H](N)Cc1cnc[nH]1)[C@@H](C)O)[C@@H](C)O)C(C)C)C(=O)N[C@@H](CCC(=O)O)C(=O)N[C@@H](Cc1ccccc1)C(=O)N[C@H](C(=O)N[C@@H](C)C(=O)N[C@@H](Cc1c[nH]c2ccccc12)C(=O)N[C@@H](CC(C)C)C(=O)N[C@H](C(=O)N[C@@H](CCCNC(=N)N)C(=O)NCC(=O)N[C@@H](CCCNC(=N)N)C(=O)NCC(=O)O)C(C)C)[C@@H](C)CC)C(=O)O [liraglutide]
Body weight exponent on V/F (V-BW) ([1]; final pharmacokinetic model): 0.587
BMI standard-deviation score (SDS), estimated treatment difference compared with placebo [3]: −0.22
